Patent US12697313B2, “Methods of treating anemia using formoterol or a pharmaceutically acceptable salt thereof” (Dana-Farber Cancer Institute, Inc., priority 2022, dated 2026)
“Also recorded” adds a separate entry of the source.

Legend:
primary human HSPCs = assay: Erythroid differentiation liquid culture of primary human HSPCs, flow cytometry; type: cell-based
Method: To address this, primary human HSPCs were treated with varying doses of FF (Selleckchem). […] To ascertain if FF administration plays a role further upstream in the erythroid differentiation pathway, methylcellulose colony-formation assays were performed.
CD34+ primary human hematopoietic stem and progenitor cells (HSPCs) were obtained from Fred-Hutchinson Cancer Research center, Seattle, USA and cultured, as previously described. Formoterol fumarate was purchased from Selleckchem (#S2020) and Sigma (#F9552), dissolved (in DMSO) and stored as per manufacturer's instructions, and used at the final working concentrations as indicated.

RIOK2 KD HSPCs = assay: Erythroid differentiation in RIOK2 knockdown HSPCs; type: cell-based, human; conditions: RIOK2 KD HSPCs vs DMSO; FIG. 6B, FIG. 45
From the text: Since RIOK2-deficient primary human HSPCs effectively model impaired erythropoiesis leading to anemia (Ghosh et la. (2022) Nat Immunol 23: 109-121), it was next investigated whether treatment with formoterol fumarate (FF) alleviates anemia in this in vitro model. To address this, RIOK2-proficient and deficient primary human HSPCs via CRISPR-Cas9 based genome-editing were generated (FIG. 6A), as previously described (Ghosh et al. (2022) Nat Immunol 23: 109-121). […] Since RPS14 deletion is reported to be MDS-genic (Ebert et al. (2008) Nature 451: 335-339; Schneider et al. (2016) Nat Med 22: 288-297), RPS14 was similarly knocked down in primary human HSPCs (FIG. 6C).
(§1) Primary human HSPCs were genome-edited, as previously described (Ghosh, S., Raundhal, M., Myers, S. A., Carr, S. A., Chen, X., Petsko, G. A., and Glimcher, L. H. (2022). Identification of RIOK2 as a master regulator of human blood cell development. Nat Immunol 23, 109-121).

APC KD HSPCs = assay: Erythropoiesis in APC knockdown HSPCs; type: cell-based, human; conditions: FIG. 46
From the text: as §1

ADRB2-deficient HSPCs = assay: Erythroid differentiation in ADRB2-deficient HSPCs (specificity for β2-adrenoreceptors); type: cell-based, human; conditions: ADRB2 knocked down HSPCs; FIG. 6E-6F
From the text: Next, to validate the specificity of FF for β2-adrenoreceptors, ADRB2 was knocked down in primary human HSPCs and treated with FF.
as §1

wild-type C57BL/6J mice = assay: FF daily i.p. in wild-type mice at steady-state (pilot study); type: in vivo
Method: The murine β2-adrenoreceptor has 87.08% similarity to the protein composition of the human analog. This encouraged further testing to determine whether formoterol fumarate (FF) treatment in wild-type mice under steady state or hemolytic anemia produces any alleviating effect in vivo. To address this, varying doses of FF 0.1-0.3-0.5-1.0 mg/kg or vehicle (0.3% DMSO in saline) were administered via intraperitoneal (i.p.) injection in 10-12 week old wild-type C57BL/6J mice daily for 3 weeks along with weekly submandibular cheek bleeding to analyze complete blood counts (CBC).
C57BL/6J mice were obtained from Jackson laboratories and were housed for at least 2 weeks at the Dana-Farber Cancer Institute (DFCI) animal resources facility before beginning experiments. All drug treatments have been mentioned in detail in the text.

[1] = system: PHZ-induced lethal hemolytic anemia mice; assay: PHZ-mediated lethal hemolytic anemia, FF i.p.; type: in vivo; conditions: for body weights: 0.1/0.3 mg/kg
Method: To this end, 10-12 week old male C57BL/6J mice were first treated with a single lethal dose of 150 mg/kg PHZ followed by daily i.p. injections of either vehicle or 0.1/0.3 mg/kg FF. […] All control mice (n=5) were moribund and died by 3 days of lethal PHZ dose, whereas 3-4 mice in 0.1/0.3 mg/kg FF treatment groups are still surviving post 2 weeks of lethal dose (FIG. 42A). […] FF injections were stopped after 7 days of lethal PHZ treatment and it was observed that the body weights of mice were held steady (FIG. 42B). The body weights and survival of these mice are being monitored daily. This unexpected finding prompted us to repeat this lethal hemolytic anemia model in the female mice. […] The FF treatment lasted for 7 days after lethal PHZ dose and the body weights and survival of these mice are being monitored daily.

wild-type mice = assay: FF oral gavage in wild-type mice at steady-state; type: in vivo
From the text: N=5 mice per group. All comparisons were done w.r.t. vehicle treated (DMSO) controls.

[2] = system: NUP98-HOXD13 transgenic mice; assay: FF i.p. in MDS/AML mice (NUP98-HOXD13 transgenic); type: in vivo; conditions: 0.3 mg/kg thrice weekly i.p.
Method: FIG. 71A, FIG. 71B and FIG. 71C show FF treatment at a low dose of 0.3 mg/kg thrice weekly (i.p.) alleviates RBC parameters in PB of MDS/AML mice, such as RBCs, hemoglobin (Hb) and hematocrit (HCT%). * p<0.05, ** p <0.01, **** p<0.0001, ANOVA. n=5-7 mice per group. Veh: vehicle; LC: littermate control.

mitochondrial biogenesis = conditions: cited from earlier work
mice = conditions: cited from earlier work
[3] = female, PHZ 120 mg/kg, FF 0.1 mg/kg, n=5
[4] = female, PHZ 120 mg/kg, FF 0.3 mg/kg, n=5
[5] = male, PHZ 150 mg/kg, FF 0.1 mg/kg, n=5
[6] = male, PHZ 150 mg/kg, FF 0.3 mg/kg, n=5

## COc1ccc(C[C@@H](C)NC[C@H](O)c2ccc(O)c(NC=O)c2)cc1.O=C(O)/C=C/C(=O)O [FF, (E)-but-2-enedioic acid;N-[2-hydroxy-5-[(1R)-1-hydroxy-2-[[(2R)-1-(4-methoxyphenyl)propan-2-yl]amino]ethyl]phenyl]formamide]
Primary human HSPCs; 1/5 μM, n=5 healthy donors, FIG. 2
  erythroid differentiation (CD235a): induces erythroid differentiation (CD235a) dose-dependently
Primary human HSPCs; 1/5 μM, n=5 healthy donors, FIG. 12
  megakaryocytic differentiation (CD41/61): does not influence megakaryocytic differentiation (CD41/61)
Primary human HSPCs; FF from Selleckchem and Sigma, n=4 healthy donors, FIG. 3A-3B
  erythroid differentiation: similarly enhanced erythroid differentiation; also recorded: enhances erythroid differentiation
Primary human HSPCs; control (RIOK2-proficient) HSPCs, FIG. 6B
  erythroid differentiation: consistently enhanced erythroid differentiation in the control HSPCs
Primary human HSPCs; varying doses FF (Selleckchem) vs 0 μM DMSO, n=3 healthy donors, FIG. 1A
  erythroid differentiation (CD235a): elevated erythroid differentiation in primary human HSPCs in a dose-dependent manner; also recorded: enhances erythroid differentiation (CD235a) dose-dependently
Primary human HSPCs; varying doses FF vs DMSO, FIG. 1B
  viability: without affecting viability, megakaryopoiesis or myelopoiesis; also recorded: does not affect viability
Primary human HSPCs; varying doses FF vs DMSO, FIG. 1C
  megakaryocytic (CD41-61) differentiation: without affecting viability, megakaryopoiesis or myelopoiesis; also recorded: does not affect
Primary human HSPCs; varying doses FF vs DMSO, FIG. 1D
  myeloid (CD11b) differentiation: without affecting viability, megakaryopoiesis or myelopoiesis; also recorded: does not affect
RIOK2 KD HSPCs
  erythroid differentiation (CD235a): stimulated erythropoiesis in RIOK2-knockdown (KD) HSPCs; also recorded: to levels comparable with basal erythropoiesis in control cells; also recorded: increases erythroid differentiation (CD235a) in RIOK2 KD HSPCs; also recorded: markedly rescues erythropoiesis
APC KD HSPCs
  erythropoiesis: moderately rescues erythropoiesis
ADRB2-deficient HSPCs
  erythroid differentiation: failed to induce erythropoiesis in ADRB2-deficient HSPCs; also recorded: inability of FF to induce erythroid differentiation
wild-type C57BL/6J mice; 0.3-0.5 and 1.0 mg/kg daily i.p., FIG. 14A
  body weights: mildly increased body weights of mice, but the values did not reach significance
wild-type C57BL/6J mice; 14 days of daily i.p., FIG. 14C-14E
  RBC parameters (RBC numbers, HCT %, Hb) in peripheral blood: slightly elevated; also recorded: mildly increases RBC parameters
wild-type C57BL/6J mice; 14 days of daily i.p., FIG. 14F-14G
  WBC and monocyte counts in peripheral blood: remained marginally affected; also recorded: does not affect white blood cell (WBC) or monocyte counts
wild-type C57BL/6J mice; all doses, day 14 of daily i.p., FIG. 14B
  mitochondrial biogenesis in PBMCs (MitoTracker staining): significantly enhanced mitochondrial biogenesis; also recorded: enhances mitochondrial biogenesis
wild-type C57BL/6J mice; daily i.p. 0.1-0.3-0.5-1.0 mg/kg
  tolerability (body weights, mobility, activeness, breathing patterns): well-tolerated
[1]; female mice, PHZ 120 mg/kg, FF 0.1/0.3 mg/kg, FIG. 42C
  survival (Kaplan-Meier): provided prominent survival benefits
[1]; female, PHZ 120 mg/kg, FIG. 42D
  body weights: similarly revived body weights; also recorded: steadily increases body weights of female mice
[1]; [3]
  mice died on day 2: 1 mouse
  mice still surviving post lethal PHZ dose: 4 mice
[1]; [4]
  mice died on day 2: 2 mice
  mice still surviving post lethal PHZ dose: 3 mice
[1]; male mice, PHZ 150 mg/kg, FF 0.1/0.3 mg/kg daily i.p., FIG. 42A
  survival (Kaplan-Meier): produced striking survival benefits
[1]; male, PHZ 150 mg/kg, 0.1/0.3 mg/kg FF groups, n=5
  mice still surviving post 2 weeks of lethal dose: 3-4 mice
[1]; male, PHZ 150 mg/kg, FIG. 42B
  body weights: produced remarkable revival in body weights; also recorded: steadily increases body weights of male mice
[1]; [5]
  mice died on day 2: 2 mice
  mice still surviving post lethal PHZ dose: 3 mice
[1]; [6]
  mice died on day 2: 1 mouse
  mice still surviving post lethal PHZ dose: 4 mice
wild-type mice; 14 days of daily o.g., FIG. 48
  RBC parameters (HCT %, RBC numbers, Hb) in peripheral blood: increases RBC parameters
wild-type mice; 14 days of daily o.g., FIG. 49
  WBCs, monocytes and platelets in peripheral blood: does not affect WBC parameters
wild-type mice; 14 days of daily o.g., FIG. 50
  mitochondrial membrane potential (TMRE staining) in BMPs: increases viability and mitochondrial membrane potential
  viability of bone marrow progenitors (BMPs): increases viability and mitochondrial membrane potential
wild-type mice; 14 days of daily o.g., FIG. 51
  MEP and MkP: increases megakaryocyte erythroid progenitors (MEP) and megakaryocytic progenitors (MkP)
  granulocyte monocyte progenitors (GMP): does not affect granulocyte monocyte progenitors (GMP)
wild-type mice; o.g., steady state, FIG. 53
  % change in body weights: mildly increases body weights
[2]; FIG. 71
  RBC parameters (RBCs, Hb, HCT%) in PB: elevates RBC parameters
[2]; FIG. 72A-72B
  platelets and WBCs in peripheral blood: has no impact
[2]; FIG. 72C
  apoptosis (Annexin V staining) in the bone marrow: has no impact
[2]; FIG. 73A
  erythroid progenitors in the BM: elevates erythroid progenitors
[2]; FIG. 73B-73C
  GMP and MkP in the BM: does not affect
Mitochondrial biogenesis; Arif et al. 2019
  expression of mtDNA encoded genes: upregulates the expression of mtDNA encoded genes
Mitochondrial biogenesis; in vitro and ex vivo (Arif et al. 2019)
  mitochondrial oxygen consumption rates (OCR): promotes mitochondrial oxygen consumption rates (OCR)
Mitochondrial biogenesis; several in vitro and in vivo models (literature)
  mitochondrial biogenesis: reported to augment mitochondrial biogenesis
mice; literature
  muscle structure and function after injury: improve muscle structure and function after injury
mice; mice (Gehrig et al. 2010; Ryall et al. 2008)
  muscle mass: increase muscle mass
